The values below come from US7767671B2, “3-Quinolinecarbonitrile protein kinase inhibitors” (Wyeth, priority 2004, dated 2010).

Each structure is given as a SMILES string. pIC50: −log10 of the molar value. Structures can show the parent of a compound that is named as a salt.

The test system of data set [1] is LoVo. The experiment in a line: Cell based screen for inhibitors of Raf and/or Mek kinase (SRB), LoVo. The arrangement: species or system human. The conditions noted are these: LoVo cells, four days incubation, (a)/(b)/(c) = average of two/three/five runs. On the procedure: (§1) Cell Based Screen for Inhibitors of Raf and/or Mek Kinase. Materials
Cell Lines: Human adenocarcinoma cell line LoVo, known to be growth inhibited by low nM concentrations of a reference standard inhibitor of Ras and human adenocarcinoma cell line CaCo-2, known to be growth resistant to the same reference compound.
Cell Media: RPMI 1640 with 10% Fetal Bovine Serum supplemented with L-glutamine and Penicillin/Streptomycin.
(§2) Cells are plated at 2000 cells per well for cell line LoVo and 1500 cells for cell line CaCo-2 in 96 well plates. Cells are plated in media (200 μl) and allowed to adhere overnight at 37° C. At 24 hours post plating, compounds are added directly at a volume of 0.5 μl. For the qualitative screen (compounds screened at 25 μM) compound is added directly to cells. For the quantitative screen, compound is first diluted in DMSO to generate concentrations of compound or reference standard of: 1, 5, 10 and 25 μM. It is advisable to make the dilutions in an identical 96 well plate so that compounds can be added using a multichannel micropipettor set at 0.5 μl. The cells are then incubated for four days after which the media is removed using a 12 well manifold by first tipping the plate forward at a 45 degree angle and then inserting the manifold in an upright orientation to prevent the tips of the manifold from disturbing cells at the bottom of the plate. 200 μl of normal saline is then added to each well using an 8 well multichannel pipettor, followed by the careful addition of 50 μl of 50% TCA. The plates are then incubated for 2 hours at 4° C., after which the supernatant is removed using the same technique as above and the plated cells are washed twice with 200 μl water. The plates are then air dried and 50 μl of SRB stock solution is carefully added so that the entire bottom of each well is covered. This again can be done using an 8 well multichannel pipettor. The SRB is incubated with fixed cells for 15 minutes at room temperature after which the SRB is removed with the manifold as described above and the plates washed twice with 350 μl of 1% acetic acid per well each time. The plates are then air dried after which the bound SRB is released from protein by the addition of 200 μl of Tris base. Resolubilizing the SRB is aided by placing the plates on a rotator for 15-30 minutes. The absorbance of each well is determined at 550 or 562 nm using a microtiter plate reader.
(§3) Each compound or dilution thereof is performed in triplicate. Outliers are identified by visual inspection of the data. Each plate should have a “0” control (vehicle only).
(§4) Quantitative Assay: A standard curve is constructed by plotting the concentration of compound against the average absorbance calculated at that concentration. A curve is plotted and the concentration at which the curve passes through the 50% the absorbance mark seen in the “0” control well is the IC50 calculated for that compound. Multiple entries for a given compound indicate that it is tested multiple times.

In data set [2] the target is T1, Raf and/or Mek kinase (human c-Raf, GST-MEK1) (Homo sapiens, UniProt P04049+Q02750).
T1 construct: Sf9 insect cell lysate containing full length 6his-tagged recombinant human c-Raf; 6His; host or cells: Sf9 insect cells (c-Raf, used as lysate); E. coli (MEK1-GST, GST-MAPK)
Put plainly: Raf/Mek kinase cascade assay. Type of data set: biochemical. The conditions noted are these: c-Raf dependent activation of GST-MEK and GST-MAPK, phospho-MAPK ELISA; (a)/(b)/(c) = average of two/three/four runs. On the procedure: Raf/Mek Kinase Cascade Assay Procedure
(Specific Activity: ˜200 U/ml). Human Non-active Mek-1-GST and human GST-MAP kinase (recombinant proteins produced in E. coli).
Stock Solutions Raf/Mek Cascade Assay:
• 1. Assay Dilution Buffer (ADB): 20 mM MOPS, pH 7.2, 25 mM β-glycerol phosphate, 5 mM EGTA, 1 mM sodium orthovanadate, 1 mM dithiothreitol; • 2. Magnesium/ATP Cocktail: 500 μM cold ATP and 75 mM magnesium chloride in ADB; • 3. Active Kinase: Human Active c-Raf: Use at 0.4 U per assay point; • 4. Non-active GST-MEK1: Use at 0.1 μg per assay point; and • 5. Non-active GST-p42 MAP Kinase: Use at 1.0 μg per assay point. Stock Solutions ELISA: • 1. TBST-Tris (50 mM, pH 7.5), NaCl (150 mM), Tween-20 (0.05%); • 2. Superblock (Pierce); • 3. Anti-GST Ab (Pharmacia); • 4. Anti-Phospho MAPK (Sigma); and • 5. Anti-Mouse Ab/Europium conjugate (Wallac). Assay Procedure: First Stage: c-Raf Dependent Activation of GST-MEK and GST-MAPK • 1. Add […] of ADB per assay (i.e. per well of a 96 well plate); • 2. Add 10 ml of 0.5 mM cold ATP and 75 mM magnesium chloride in ADB; • 3. Add 2 ml of c-Raf (0.4 U/assay), in conjunction with 1.6 ml non-active MEK1 (0.4 […]/assay); • 4. Add 4 ml of non-active GST-p42 MAP Kinase (1.0 mg/assay); • 5. Incubate for 60 minutes at 30° C. in a shaking incubator; • 6. Transfer this mixture to an anti-GST Ab coated 96 well plate (Nunc Immunosorb plates coated o/n with a-GST, then blocked with Pierce Superblock); • 7. Incubate for 60 minutes at 30° C. in a shaking incubator; • 8. Wash 3× with TBST, add Anti-Phospho MAPK (Sigma) (1:3000); • 9. Incubate for 60 minutes at 30° C. in a shaking incubator; • 10. Wash 3× with TBST, add Anti-Mouse Ab/Europium conjugate (Wallac) (1:500); • 11. Incubate for 60 minutes at 30° C. in a shaking incubator; • 12. Wash 3× with TBST, Read plates in Wallac Victor model Plate Reader; and • 13. Collect data analyze in Excel for single point and IC50 determinations.
Single point assay—% inhibition at […] (% Inhibition=1−cpd·treated sample/untreated control). IC50 determinations—done on compounds from single point assays with >80% inhibition. Typically, the Raf/Mek assay is run at compound concentrations from 10 μM to 1 nM in half log dilutions. (% inhibition is determined for each compound concentration). The results obtained measure Raf and/or Mek kinase inhibition, and for representative compounds of this invention are listed in Table 1.

For data set [3], the system named is BxPC3. The experiment in a line: Cell based screen for inhibitors of Raf and/or Mek kinase (SRB), BxPC3. The conditions noted are these: Homo sapiens, BXPC-3, BxPC3 cells, (a)/(b) = average of two/three runs. How it is done: [The procedure below names another cell line; the source lists this cell line under the same test.] as §1, §2, §3, §4

T1 sequence (P04049 whole entry): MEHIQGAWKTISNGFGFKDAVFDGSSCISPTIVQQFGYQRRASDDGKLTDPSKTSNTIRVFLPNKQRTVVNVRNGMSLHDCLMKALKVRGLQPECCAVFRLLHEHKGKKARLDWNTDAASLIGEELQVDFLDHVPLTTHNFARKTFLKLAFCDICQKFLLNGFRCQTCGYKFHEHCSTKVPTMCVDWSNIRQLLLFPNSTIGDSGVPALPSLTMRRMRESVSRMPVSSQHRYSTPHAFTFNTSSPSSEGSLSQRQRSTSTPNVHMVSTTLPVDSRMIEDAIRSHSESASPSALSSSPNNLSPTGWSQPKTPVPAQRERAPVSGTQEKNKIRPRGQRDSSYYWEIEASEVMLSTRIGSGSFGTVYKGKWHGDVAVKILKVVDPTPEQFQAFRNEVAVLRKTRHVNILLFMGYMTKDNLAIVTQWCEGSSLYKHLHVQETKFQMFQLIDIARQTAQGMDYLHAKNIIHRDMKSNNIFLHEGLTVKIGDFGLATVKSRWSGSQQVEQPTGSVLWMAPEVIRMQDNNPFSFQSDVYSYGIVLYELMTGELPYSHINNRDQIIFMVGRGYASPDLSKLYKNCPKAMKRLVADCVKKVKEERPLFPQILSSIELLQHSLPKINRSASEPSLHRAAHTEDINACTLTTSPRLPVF
T1 sequence (Q02750 whole entry): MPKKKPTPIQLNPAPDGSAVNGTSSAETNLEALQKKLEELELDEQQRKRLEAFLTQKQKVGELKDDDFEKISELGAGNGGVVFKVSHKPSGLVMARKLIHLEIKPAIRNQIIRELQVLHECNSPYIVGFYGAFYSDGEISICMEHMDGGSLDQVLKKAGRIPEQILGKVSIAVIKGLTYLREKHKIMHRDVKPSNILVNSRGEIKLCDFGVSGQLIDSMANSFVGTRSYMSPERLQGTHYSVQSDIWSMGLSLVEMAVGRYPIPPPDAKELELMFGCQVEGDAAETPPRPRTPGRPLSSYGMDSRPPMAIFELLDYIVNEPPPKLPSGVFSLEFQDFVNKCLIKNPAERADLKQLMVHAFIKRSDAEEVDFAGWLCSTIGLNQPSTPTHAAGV

Take `COc1ccccc1Oc1ccc(Nc2c(C#N)cnc3cc(N4CCC(N5CCCC5)CC4)c(OC)cc23)cc1` [Example 12, 6-Methoxy-4-{[4-(2-methoxyphenoxy)phenyl]amino}-7-(4-pyrrolidin-1-ylpiperidin-1-yl)quinoline-3-carbonitrile, trifluoroacetate salt]: the pIC50 is 6.34 in data set [1] (Homo sapiens, 96 h); 6.68 in data set [2]; 5.85 in data set [3].

For the compound `COc1cc2c(Nc3ccc(Sc4ccccn4)cc3)c(C#N)cnc2cc1N1CCC(N2CCCC2)CC1` [Example 13, 6-Methoxy-4-[4-(pyridin-2-ylsulfanyl)phenylamino]-7-(4-pyrrolidin-1-yl-piperidin-1-yl)-quinoline-3-carbonitrile], the melting point was in the range of 182 to 184 °C. Further, in data set [1] (Homo sapiens, 96 h), the pIC50 is 6.33. In data set [2], this compound showed a pIC50 of 5.85. The compound also gave a pIC50 in data set [3] of 6.22.

As for `COc1cc2c(Nc3ccc(Sc4ccccn4)c(Cl)c3)c(C#N)cnc2cc1N1CCC(N2CCCC2)CC1` [Example 14, 4-[3-Chloro-4-(pyridin-2-ylsulfanyl)-phenylamino]-6-methoxy-7-(4-pyrrolidin-1-yl-piperidin-1-yl)-quinoline-3-carbonitrile], the melting point was 203 to 205 °C. Further, the pIC50 in data set [1] (Homo sapiens, 96 h) was 6.43. For the same compound, in data set [2], the pIC50 was 6.10. In data set [3], this compound had a pIC50 of 6.52.

As to `COc1cc2c(Nc3ccc(Oc4cccnc4)cc3)c(C#N)cnc2cc1N1CCC(N2CCCC2)CC1` [Example 15, 6-Methoxy-4-[4-(pyridin-3-yloxy)-phenylamino]-7-(4-pyrrolidin-1-yl-piperidin-1-yl)-quinoline-3-carbonitrile], the melting point is 194 to 196 °C. This compound also gave a negative-log IC50 (pIC50) in data set [1] (Homo sapiens, 96 h) of 6.58. In data set [2], this compound showed a pIC50 of 5.76. The compound further had a pIC50 in data set [3] of 6.44.

`COCCOc1cc2c(Nc3ccc(Sc4nccn4C)c(Cl)c3)c(C#N)cnc2cc1N1CCC(N2CCCC2)CC1` [Example 17, 4-({3-Chloro-4-[(1-methyl-1H-imidazole-2-yl)thio]phenyl}amino)-6-(2-methoxyethoxy)-7-(4-pyrrolidin-1-ylpiperidin-1-yl)quinoline-3-carbonitrile] registered a melting point of 238 to 241 °C. The compound further had a pIC50 in data set [1] (Homo sapiens, 96 h) of 7.51. Further, the pIC50 in data set [2] was 6.49.

As for `COc1cc2c(Nc3ccc(Sc4nccn4C)c(Cl)c3)c(C#N)cnc2cc1N1CCC(N2CCCCC2)CC1` [Example 19], the pIC50 in data set [1] was 8.10; in data set [2], 6.70.

Compound `COc1cc2c(Nc3ccc(Sc4nccn4C)c(Cl)c3)c(C#N)cnc2cc1N1CCC(N2CCOCC2)CC1` [Example 21, 4-({3-Chloro-4-[(1-methyl-1H-imidazole-2-yl)thio]phenyl}amino)-6-methoxy-7-(4-morpholin-4-ylpiperidin-1-yl)quinoline-3-carbonitrile] had a melting point of 219 to 221 °C. The compound further had a pIC50 in data set [1] (Homo sapiens, 96 h) of 7.70. This compound also gave a pIC50 in data set [2] of 6.74.

In turn, `COc1cc2c(Nc3ccc(Sc4nccn4C)c(Cl)c3)c(C#N)cnc2cc1N1CCN(C2CCN(C)CC2)CC1` [Example 22, 4-({3-Chloro-4-[(1-methyl-1H-imidazole-2-yl)thio]phenyl}amino)-6-methoxy-7-[4-(1-methylpiperidin-4-yl)piperazin-1-yl]quinoline-3-carbonitrile] showed a melting point of 220 to 226 °C. This compound also had a pIC50 in data set [1] (Homo sapiens, 96 h) of 7.10. In data set [2], this compound showed a negative-log IC50 (pIC50) of 6.56.

In turn, `COc1cc2c(Nc3ccc(Sc4nccn4C)c(Cl)c3)c(C#N)cnc2cc1N1CCN(CCn2ccnc2)CC1` [Example 23, 4-({3-Chloro-4-[(1-methyl-1H-imidazole-2-yl)thio]phenyl}amino)-7-{4-[2-(1H-imidazole-1-yl)ethyl]piperazin-1-yl}-6-methoxyquinoline-3-carbonitrile] displayed a melting point of 251 to 253 °C. Further, the pIC50 in data set [1] (Homo sapiens, 96 h) is 6.32. The same compound gave a pIC50 in data set [2] of 6.73.

Regarding `N#Cc1c[nH]c2cc(N3CCC(N4CCCC4)CC3)c([N+](=O)[O-])cc2c1=O` [Example 24, 6-Nitro-4-oxo-7-(4-pyrrolidin-1-ylpiperidin-1-yl)-1,4-dihydroquinoline-3-carbonitrile], the melting point lay within 232 to 235 °C.

As to `N#Cc1cnc2cc(N3CCC(N4CCCC4)CC3)c([N+](=O)[O-])cc2c1Cl` [Example 25, 4-chloro-6-nitro-7-(4-pyrrolidin-1-ylpiperidin-1-yl)quinoline-3-carbonitrile], the melting point is 255 to 265 °C (dec.).

Consider `Cn1ccnc1Sc1ccc(Nc2c(C#N)cnc3cc(N4CCC(N5CCCC5)CC4)c([N+](=O)[O-])cc23)cc1Cl` [Example 26, 4-({3-Chloro-4-[(1-methyl-1H-imidazole-2-yl)thio]phenyl}amino)-6-nitro-7-(4-pyrrolidin-1-ylpiperidin-1-yl)quinoline-3-carbonitrile], for which the melting point was in the range of 220 to 230 °C.

`Cn1ccnc1Sc1ccc(Nc2c(C#N)cnc3cc(N4CCC(N5CCCC5)CC4)c(N)cc23)cc1Cl` [Example 27, 6-Amino-4-[3-chloro-4-(1-methyl-1H-imidazole-2-ylsulfanyl)phenylamino]-7-(4-pyrrolidin-1-yl-piperidin-1-yl)quinoline-3-carbonitrile] gave a melting point of 265 to 267 °C.

`COc1cc2c(Nc3ccc(Sc4nccn4C)c(Cl)c3)c(C#N)cnc2cc1OCCN1CCC(N2CCCC2)CC1` [Example 36, 4-{3-Chloro-4-[(1-methyl-1H-imidazole-2-yl)sulfanyl]anilino}-6-methoxy-7-{2-[4-(1-pyrrolidinyl)-1-piperidinyl]ethoxy}-3-quinolinecarbonitrile] showed a melting point of 127 to 130 °C.

What is called pIC50 is −log10 of the IC50, conventionally taken in molar units. High values mean a small IC50, low ones a large IC50. The term melting point denotes the temperature, or range, at which the solid turns liquid.
